# Experimental data reported in ChEMBL document CHEMBL2034875, “Bifunctionalized amphilectane diterpenes from the sponge Stylissa cf. massa” (J Nat Prod, 2012).
# The source made the active and inactive calls. The rule behind the calls is not given here.
# Assays:
# Plasmodium falciparum [1] = experiment: Antimalarial activity against Plasmodium falciparum K1 infected in human erythrocytes assessed as inhibition of [3H]hypoxanthine incorporation incubated for 24 hrs prior to hypoxanthine addition measured after 18 hrs by liquid scintillation counting; format: functional, organism-based
# [2] = Cytotoxicity against human MCF7 cells assessed as growth inhibition at 25 ug/mL by SRB assay; format: cell-based; conditions: read-out: GI
# Plasmodium falciparum [3] = experiment: Antimalarial activity against Plasmodium falciparum K1 infected in human erythrocytes assessed as inhibition of [3H]hypoxanthine incorporation at 10 ug/mL incubated for 24 hrs prior to hypoxanthine addition measured after 18 hrs by liquid scintillation counting; format: functional, organism-based
Structure (SMILES),IC50 (Plasmodium falciparum [1]),inhibition at 25 ug/mL [2],Activity (Plasmodium falciparum [3])
C[C@H]1[C@@H](O)O[C@@H]2O[C@@]3(C)CC[C@H]4[C@H](C)CC[C@@H]1[C@@]24OO3 [ARTENIMOL],0.0038 µM,–,–
[C-]#[N+][C@@]12CCC(=C)[C@H]3[C@H](CC(C)(C)NC=O)C[C@H](C)[C@@H](CC[C@@H]1C)[C@@H]32,0.52 µM,< 50%,–
C=C1CC[C@@]2(N=C=S)[C@H]3[C@H](CC[C@@H]2C)[C@@H](C)C[C@@H](CC(C)(C)NC=O)[C@H]13,8.07 µM,< 50%,–
C=C(C)C[C@@H]1C[C@H](C)[C@H]2CC[C@](C)(NC=O)[C@H]3CCC(=C)[C@@H]1[C@H]23,–,< 50%,inactive
C=C1CC[C@@]2(N=C=O)[C@H]3[C@H](CC[C@@H]2C)[C@@H](C)C[C@@H](CC(C)(C)NC=O)[C@H]13,8.85 µM,< 50%,–
